This is an account of results in the supplement of paper PMC11061612.

Assay in all cases: combination Emax (second highest fraction inhibited in the dose matrix, 72 h); higher = more inhibition; extreme values may be limits of the assay
Test [1] relates to Calu-3 (Lung Adenocarcinoma). In short, it runs like this:
(§1)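 Cell lines in DMEM/F12 or RPMI with 10% FBS were plated in 1536-well plates, held 24 hours at 37°C, 5% CO2, then given two-drug dose matrices for 72 hours (DMSO typically 0.2%). Viability was read by CellTiter-Glo 2.0 luminescence and scaled as inhibition from 0 (vehicle wells) to 1 (blank wells). Combination Emax is the second-highest inhibition in the matrix; Bliss excess is observed combination effect minus expected EA + EB − EA·EB, EA and EB being single-agent effects.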

Test [2] relates to UM-UC-3 (Bladder Carcinoma). In short, it runs like this:
as §1

In test [3] the test system is CaR-1 (Colorectal Carcinoma). In short, it runs like this:
as §1

Test [4] relates to NCI-H2085 (Non-Small Cell Lung Carcinoma). In outline:
as §1

Test [5] relates to TE-9 (Esophageal Squamous Cell Carcinoma). In outline: as §1
The test system of the next test is T98G (Glioblastoma). In outline: as §1
Test [6] deals with NCI-H82 (Small Cell Lung Carcinoma). In outline:
as §1

In the next test the test system is KELLY (Neuroblastoma). In short, it runs like this:
as §1

For test [7], the system named is DoTc2-4510 (Cervical Carcinoma). In outline:
as §1

Test [8] relates to KURAMOCHI (Ovarian Carcinoma). In short, it runs like this:
as §1

Test [9] relates to TE-15 (Esophageal Squamous Cell Carcinoma). In outline: as §1
Test [10] concerns Hs-578-T (Breast Carcinoma). In short, it runs like this:
as §1

The test system of the next test is NB10 (Neuroblastoma). In outline:
as §1

Test [11] relates to CCRF-CEM (T-Lymphoblastic Leukemia). In short, it runs like this:
as §1

Test [12] deals with HT-1376 (Bladder Carcinoma). In short, it runs like this:
as §1

For test [13], the system named is HO-1-N-1 (Oral Cavity Carcinoma). In short, it runs like this: as §1
In test [14] the test system is CAL-148 (Breast Carcinoma). In outline:
as §1

Test [15] concerns Ramos-2G6-4C10 (Burkitt's Lymphoma). In outline:
as §1

For test [16], the system named is ME-1 (Acute Myeloid Leukemia). In outline:
as §1

For test [17], the system named is HCC-78 (Lung Adenocarcinoma). In short, it runs like this:
as §1

`C=CCn1c(=O)c2cnc(Nc3ccc(N4CCN(C)CC4)cc3)nc2n1-c1cccc(C(C)(C)O)n1` [AZD1775] + CCc1c2c(nc3ccc(O)cc13)-c1cc3c(c(=O)n1C2)COC(=O)[C@]3(O)CC [SN-38] (first compound max 1 µM, partner max 0.3 µM): the “combination Emax” value in [1] came to 0.786; in test [2] it was 0.954; in test [3] it was 0.808; in [4], 0.523; in test [5], 0.496; in the test on T98G (Glioblastoma), 0.95. Besides, the “combination Emax” value in test [6] is 0.965; with KELLY (Neuroblastoma) it was 1; in test [7], 0.92; in test [8], 0.944; in [9], 0.939; in test [10], 0.855. Also, the “combination Emax” value in the test on NB10 (Neuroblastoma) came to 0.853; in test [11], 1; in test [12] it was 0.342; in test [13], 0.978; in [14], 0.974; in test [15], 1. For the same molecule, the “combination Emax” value was found to be 0.597 in test [16] and 0.954 in test [17].
As to `C=CCn1c(=O)c2cnc(Nc3ccc(N4CCN(C)CC4)cc3)nc2n1-c1cccc(C(C)(C)O)n1` [AZD1775] + Nc1ccn([C@@H]2O[C@H](CO)[C@@H](O)C2(F)F)c(=O)n1 [Gemcitabine] (first compound max 1 µM, partner max 0.3 µM), the “combination Emax” value was 0.636 in test [1]; 0.918 in test [2]; 0.729 in test [3]; 0.725 in test [4]; 0.502 in test [5]; 0.781 with T98G (Glioblastoma). For the same molecule, the “combination Emax” value was 0.923 in [6]; 1 with KELLY (Neuroblastoma); 0.729 in [7]; 0.699 in test [8]; 0.944 in test [9]; 0.724 in test [10]. Also, the “combination Emax” value in the test on NB10 (Neuroblastoma) was found to be 0.933; in [11], 1; in [12], 0.428; in test [13], 0.993; in test [14], 0.989; in test [15] it was 1. The “combination Emax” value in [16] came out at 0.526; in test [17], 0.851.
Take `CN(CCO)CC[C@H](CSc1ccccc1)Nc1ccc(S(=O)(=O)NC(=O)c2ccc(N3CCC([C@@H](O)c4ccccc4-c4ccc(Cl)cc4)CC3)cc2)cc1S(=O)(=O)C(F)(F)F` [AZD4320] + CC(=O)O[C@H]1C(=O)[C@@]2(C)[C@H]([C@H](OC(=O)c3ccccc3)[C@]3(O)C[C@H](OC(=O)[C@H](O)[C@@H](NC(=O)c4ccccc4)c4ccccc4)C(C)=C1C3(C)C)[C@]1(OC(C)=O)CO[C@@H]1C[C@@H]2O [Paclitaxel] (first compound max 1 µM, 7x7, partner max 3 µM): the “combination Emax” value came out at 0.76 in [1]; 0.966 in test [2]; 0.911 in test [3]; 0.97 in test [4]; 0.931 in [5]; 0.993 in the test with T98G (Glioblastoma). Further, the “combination Emax” value in test [6] amounted to 0.941; with KELLY (Neuroblastoma), 1; in test [7], 0.992; in test [8] it was 0.707; in [9], 0.992; in [10], 1. Also, the “combination Emax” value in the test with NB10 (Neuroblastoma) was 0.912; in test [11], 1; in test [12], 0.775; in test [13], 1; in [14] it was 1; in test [15] it was 0.872. Further, the “combination Emax” value in test [16] turned out to be 1; in [17] it was 0.803.
`CN(CCO)CC[C@H](CSc1ccccc1)Nc1ccc(S(=O)(=O)NC(=O)c2ccc(N3CCC([C@@H](O)c4ccccc4-c4ccc(Cl)cc4)CC3)cc2)cc1S(=O)(=O)C(F)(F)F` [AZD4320] + CS(=O)(=O)CCNCc1ccc(-c2ccc3ncnc(Nc4ccc(OCc5cccc(F)c5)c(Cl)c4)c3c2)o1 [Lapatinib] (first compound max 1 µM, 7x7, partner max 10 µM): the “combination Emax” value in test [1] turned out to be 0.989; in test [2], 0.392; in [3], 0.785; in test [4], 0.807; in test [5], 0.931; with T98G (Glioblastoma), 0.741. Besides, the “combination Emax” value in test [6] was found to be 0.69; in the test with KELLY (Neuroblastoma) it was 0.994; in [7] it was 0.974; in test [8], 0.939; in test [9], 0.761; in test [10] it was 0.99. In addition, the “combination Emax” value in the test with NB10 (Neuroblastoma) stood at 0.705; in [11], 1; in test [12], 0.508; in test [13], 0.97; in test [14], 0.94; in test [15] it was 0.961. For the same molecule, the “combination Emax” value was determined as 1 in [16] and 0.238 in [17].
Take `CN(CCO)CC[C@H](CSc1ccccc1)Nc1ccc(S(=O)(=O)NC(=O)c2ccc(N3CCC([C@@H](O)c4ccccc4-c4ccc(Cl)cc4)CC3)cc2)cc1S(=O)(=O)C(F)(F)F` [AZD4320] + Nc1ccn([C@@H]2O[C@H](CO)[C@@H](O)C2(F)F)c(=O)n1 [Gemcitabine] (first compound max 1 µM, 7x7, partner max 0.3 µM): the “combination Emax” value in [1] was determined as 0.624; in test [2], 0.979; in [3] it was 0.708; in test [4], 0.562; in test [5] it was 0.518; with T98G (Glioblastoma), 0.861. Besides, the “combination Emax” value in test [6] amounted to 0.807; in the test with KELLY (Neuroblastoma), 0.999; in [7], 0.882; in [8] it was 0.559; in test [9] it was 0.994; in test [10] it was 0.876. The “combination Emax” value with NB10 (Neuroblastoma) was determined as 0.858; in test [11], 1; in test [12], 0.236; in test [13], 1; in test [14], 0.974; in test [15], 0.554. Moreover, the “combination Emax” value in test [16] worked out at 1; in [17] it was 0.852.
For `C[C@@H]1COCCN1c1cc(C2([S@](C)(=N)=O)CC2)nc(-c2ccnc3[nH]ccc23)n1` [AZD6738] + Nc1ccn([C@@H]2O[C@H](CO)[C@@H](O)C2(F)F)c(=O)n1 [Gemcitabine] (first compound max 10 µM, 7x7, partner max 0.3 µM), the “combination Emax” value in [1] turned out to be 0.694; in test [2], 0.966; in [3], 0.752; in test [4], 0.587; in test [5], 0.538; in the test with T98G (Glioblastoma), 0.858. Besides, the “combination Emax” value was 0.987 in [6]; 1 with KELLY (Neuroblastoma); 0.795 in test [7]; 0.667 in test [8]; 0.939 in [9]; 0.772 in test [10]. For the same molecule, the “combination Emax” value was 1 in test [11]; 0.491 in [12]; 1 in test [13]; 1 in test [14]; 0.774 in test [16]; 0.901 in [17].
